# In patent US20060088874A1, “Methods and kits for detecting mutations” (Promega Corporation, priority 2004, published 2006):
# Read-outs that look alike come from different tables or passages of the source.
# Experiments:
# [1] = tested on: microsatellite markers in human fibroblast cell line #AG01522
# Method: human fibroblast cell line #AG01522 from Coriell Cell Repository were cultured in MEM Eagle-Earle BSS 2× concentration of essential and non-essential amino acids and vitamins with 2 mM L-glutamine, 10% fetal bovine serum, 0.5 Units/ml of penicillin, 0.5 μg/ml of streptomycin. Cell cultures were grown at 37° C. and 5% CO2 under sterile conditions and split at a ratio of 1:5 when cells were confluent by releasing cells with trypsin-EDTA treatment. […] Cells were pelleted and DNA extracted.
# Mutant alleles were identified by small-pool PCR as described in Example B above using primer pairs specific for microsatellite markers (Tables 2 and 7) including: (1) mononucleotide repeat markers (NR-21, NR-24, BAT-25, BAT-26 and MONO-27); (2) extended mononucleotide repeat markers (hBAT-51d, hBAT-52a, hBAT-53c, hBAT59a, hBAT-60a and hBAT-62); (3) tetranucleotide repeat markers on autosomal chromosomes (D7S3070, D7S3046, D7S1808, D10S1426 and D3S2432); (4) tri-, tetra- and penta-nucleotide repeats on the Y chromosome (DYS391, DYS389 I, DYS389 II, DYS438, DYS437, DYS19, DYS392, DYS393, DYS390, and DYS385); and (5) penta-nucleotide repeats Penta B, C, D, and E (Bacher, et al. 1999.
# [2] = tested on: mononucleotide repeat loci (mBat markers); format: in vivo, C57BL/6 mice
# [3] = tested on: mtDNA (Δ-mtDNA4977 deletion); format: in vivo, C57BL/6 mice; details: old age paraquat-treated group, three mice
# Method: […] mice were housed and inbred at the University of Wisconsin, with an average life span ˜30 months. Four groups of three mice were included in the study: 5-month old mice (young control or YC); 5-month old mice treated with paraquat; 24-month old mice (old age); and 24-month old mice treated with paraquat. Paraquat-treated animals received a single intraperitoneal injection of 50 mg/kg body weight dissolved in PBS 24 hours after their last feeding. Each mouse was sacrificed by cervical dislocation.
# The entire liver from each mouse was dissected, washed with PBS, placed in a 1.5 ml Ependorf tube, snap frozen in liquid nitrogen, and stored at −80° C. DNA was prepared from the mouse liver tissue by using the DNA-IQ Tissue and Hair Extraction Kit (Promega Corporation, Madison, Wis.) and was quantified using the PicoGreen dsDNA Quantitative Kit (Molecular Probes, Eugene, Oregon) following manufacturers protocols.
# Based on the mouse mtDNA sequence, four fluorescence labeled primer pairs were designed to detect both wildtype sequences and mtDNA deletions. […]
# Separation and detection of amplified fragments was performed on an ABI PRISM® 3100 Genetic Analyzer following the manufacturer's protocol (Applied Biosystems, Foster City, Calif.). Data was analyzed with the GeneScan and Genotyper computer software packages (Applied Biosystems). […]
structure (smiles),measurement,setting,value
OO [hydrogen peroxide],"mutations in extended mononucleotide repeats, Y-STRs and A-rich pentanucleotide repeats","[1]; cells exposed to 0.1 to 1.2 mM hydrogen peroxide for 1 hour, 3 days recovery",Mutations were detected
same,"mutations in short mononucleotide repeat markers NR-21, NR-24, BAT-25, BAT-26 or MONO-27","[1]; cells exposed to hydrogen peroxide, 0/1,526 alleles",No mutations
C[n+]1ccc(-c2cc[n+](C)cc2)cc1 [Paraquat],Mutation Freq,"[2]; mBat-24, Old w/Paraquat",0.000
same,# Mutants,"[2]; mBat-24, Old w/Paraquat, 318 alleles",0
same,Mutation Freq,"[2]; mBat-24, Young w/ Paraquat",0.002
same,# Mutants,"[2]; mBat-24, Young w/ Paraquat, 648 alleles",1
same,Mutation Freq,"[2]; mBat-26, Old w/Paraquat",0.000
same,# Mutants,"[2]; mBat-26, Old w/Paraquat, 340 alleles",0
same,Mutation Freq,"[2]; mBat-26, Young w/ Paraquat",0.000
same,# Mutants,"[2]; mBat-26, Young w/ Paraquat, 457 alleles",0
same,Mutation Freq,"[2]; mBat-30, Old w/Paraquat",0.000
same,# Mutants,"[2]; mBat-30, Old w/Paraquat, 344 alleles",0
same,Mutation Freq,"[2]; mBat-30, Young w/ Paraquat",0.000
same,# Mutants,"[2]; mBat-30, Young w/ Paraquat, 704 alleles",0
same,Mutation Freq,"[2]; mBat-37, Old w/Paraquat",0.000
same,# Mutants,"[2]; mBat-37, Old w/Paraquat, 306 alleles",0
same,Mutation Freq,"[2]; mBat-37, Young w/ Paraquat",0.001
same,# Mutants,"[2]; mBat-37, Young w/ Paraquat, 992 alleles",1
same,Mutation Freq,"[2]; mBat-49, Old w/Paraquat",0.000
same,# Mutants,"[2]; mBat-49, Old w/Paraquat, 194 alleles",0
same,Mutation Freq,"[2]; mBat-51a, Old w/Paraquat",0.000
same,# Mutants,"[2]; mBat-51a, Old w/Paraquat, 240 alleles",0
same,Mutation Freq,"[2]; mBat-51b, Old w/Paraquat",0.000
same,# Mutants,"[2]; mBat-51b, Old w/Paraquat, 186 alleles",0
same,Mutation Freq,"[2]; mBat-52, Old w/Paraquat",0.000
same,# Mutants,"[2]; mBat-52, Old w/Paraquat, 44 alleles",0
same,Mutation Freq,"[2]; mBat-59, Old w/Paraquat",0.013
same,# Mutants,"[2]; mBat-59, Old w/Paraquat, 448 alleles",6
same,Mutation Freq,"[2]; mBat-59, Young w/ Paraquat",0
same,# Mutants,"[2]; mBat-59, Young w/ Paraquat, 636 alleles",4
same,Mutation Freq,"[2]; mBat-61a, Old w/Paraquat",0.005
same,# Mutants,"[2]; mBat-61a, Old w/Paraquat, 428 alleles",2
same,Mutation Freq,"[2]; mBat-64, Old w/Paraquat",0.019
same,# Mutants,"[2]; mBat-64, Old w/Paraquat, 412 alleles",8
same,Mutation Freq,"[2]; mBat-64, Young w/ Paraquat",0
same,# Mutants,"[2]; mBat-64, Young w/ Paraquat, 443 alleles",1
same,Mutation Freq,"[2]; mBat-66, Old w/Paraquat",0.018
same,# Mutants,"[2]; mBat-66, Old w/Paraquat, 448 alleles",8
same,Mutation Freq,"[2]; mBat-66, Young w/ Paraquat",0
same,# Mutants,"[2]; mBat-66, Young w/ Paraquat, 592 alleles",3
same,Mutation Freq,"[2]; mBat-67, Old w/Paraquat",0.051
same,# Mutants,"[2]; mBat-67, Old w/Paraquat, 394 alleles",20
same,Mutation Freq,"[2]; mBat-67, Young w/ Paraquat",0
same,# Mutants,"[2]; mBat-67, Young w/ Paraquat, 334 alleles",1
same,"mutations in loci mBAT-24, mBAT-26, mBat-30, or mBAT-37","[2]; old paraquat-treated group, out of 1608 alleles",no mutations
same,"mutations in mononucleotide repeat alleles assayed, loci mBAT-59, mBAT-64, mBAT-66 or mBAT-67","[2]; paraquat-treated old age group, SP-PCR, (25/1649)",over 1.8%
same,Δ-mtDNA4977 detected (mice of group),[3],All three mice in the old age paraquat-treated group showed Δ-mtDNA4977
